Article PMC9786103, “Potent and Selective Inhibition of CYP1A2 Enzyme by Obtusifolin and Its Chemopreventive Effects” (Pharmaceutics, 2022)

Legend:
Format in all cases: biochemical
CYP1A1 and CYP1A2 = test: CYP1A1- and CYP1A2-mediated POD and EROD with recombinant enzymes (summary); settings: human, summary bound
Protocol: (§1) The other conditions were similar to those used in the P450 inhibition study, as described earlier.
The inhibitory effects of obtusifolin on the CYP1A-mediated ethoxyresorufin O-deethylation (EROD) activity of rCYP1A1 and rCYP1A2 enzymes (10 pmol/mL) were investigated. […] The other conditions, except for the incubation time (20 min), were similar to those used in the P450 inhibition study, as described earlier.

[1] = molecular target: T1, recombinant CYP1A2 (rCYP1A2) (Homo sapiens, UniProt P05177); test: Inhibition of CYP1A2-mediated POD in recombinant CYP1A2; settings: rCYP1A2 10 pmol/mL
T1 construct: purchased SPMED (Busan, Republic of Korea)
T1 sequence (P05177 1-516): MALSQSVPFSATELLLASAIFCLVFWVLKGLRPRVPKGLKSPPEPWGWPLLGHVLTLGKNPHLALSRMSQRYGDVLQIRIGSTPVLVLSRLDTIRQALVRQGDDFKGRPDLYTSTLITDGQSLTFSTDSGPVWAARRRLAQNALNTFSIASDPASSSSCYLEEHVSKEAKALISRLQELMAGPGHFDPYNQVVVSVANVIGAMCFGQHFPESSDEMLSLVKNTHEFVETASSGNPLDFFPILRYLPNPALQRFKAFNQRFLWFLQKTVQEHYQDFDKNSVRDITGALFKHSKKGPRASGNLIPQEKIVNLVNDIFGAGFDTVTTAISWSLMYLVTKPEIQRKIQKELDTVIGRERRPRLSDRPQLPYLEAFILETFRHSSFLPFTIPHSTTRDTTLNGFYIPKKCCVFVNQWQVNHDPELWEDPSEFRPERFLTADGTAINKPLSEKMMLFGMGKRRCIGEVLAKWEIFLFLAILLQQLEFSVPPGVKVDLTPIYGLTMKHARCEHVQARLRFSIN
Source text: as §1
WinNonlin software (Pharsight, Mountain View, CA, USA) was used to calculate IC50 values. Based on Lineweaver–Burk double reciprocal plots, secondary plots of Lineweaver–Burk plots versus obtusifolin concentrations, and visual inspection of Dixon plots, the type of inhibition and apparent kinetic parameters for inhibitory activity (Ki) were estimated.

CYP1A2 = molecular target: T2, CYP1A2 (Homo sapiens, UniProt P05177); test: Time-dependent inhibition assay (IC50 shift) of CYP1A2-mediated POD in pHLMs; set-up: tissue XenoTech XTreme 200; host or cells: pooled human liver microsomes
T2 sequence (P05177 1-516): T1 sequence (P05177 1-516)
Protocol: The IC50 shift approach was applied to assess the time-dependent inhibition of CYP1A2 by obtusifolin [18]. For 30 min, obtusifolin was pre-incubated with pHLMs in the presence of NGS. The reaction was started with 100 µM phenacetin and then incubated for 15 min. Following reaction termination and centrifugation, aliquots of the supernatants were subjected to LC-MS/MS analysis.

IC50 (CYP1A1 and CYP1A2): < 570 nM | IC50 ([1]; phenacetin, read-out: IC50, CYP1A2-mediated phenacetin O-deethylation): 370 ± 110 nM | Ki ([1]; read-out: Ki, CYP1A2-mediated phenacetin O-deethylation): 210 ± 53 nM | IC50 (CYP1A2; 30 min preincubation with pHLMs and NGS, phenacetin 100 µM): 130 nM | Time dependence of CYP1A2 inhibition (CYP1A2; IC50 shift approach): time-independent inhibition | IC50 shift at 15 min (CYP1A2; human, pooled human liver microsomes, probe phenacetin (100 µM), 30 min preincubation with NGS vs without, pHLMs): 1.46
Structure (SMILES): COc1c(O)c(C)cc2c1C(=O)c1c(O)cccc1C2=O [Obtusifolin, obtusifolin]
